Values of other authors in PMC5510229, “BCAT1 controls metabolic reprogramming in activated human macrophages and is associated with inflammatory diseases” (Nature Communications, 2017).

Tests used:
[1] = system: a2δ−1 and a2δ−2 subunits of voltage-activated calcium channels; design: method as in PMID 19128880; conditions: cited from earlier work
[2] = design: method as in PMID 10381778; conditions: cited from earlier work

Question: For `NCC1(CC(=O)O)CCCCC1` [gabapentin], which binding affinity [1] is on record?
Answer: Its binding affinity is “high affinity”.

Question: And the anti-inflammatory effects [2]?
Answer: The anti-inflammatory effects was “no apparent anti-inflammatory effects”.
